These results are taken from patent publication US20260167621A1, “Three Cluster Galactose Type Compound, Conjugate, Making Method and Use Thereof” (GUANGZHOU RIBOBIO CO., LTD., priority 2023, published 2026).

Series [1] is described as follows: In vivo hepatic targeting of GalNac-siRNA (siRNA concentration of hepatic tissue by qPCR). Set-up: species or system Balb/c-nu mice. Particulars: 100 mg/kg, tail vein injection once, livers 6 hours after administration; compared with negative control siRNA not linked to GalNAc. The protocol: Balb/c-nu mice, male, body weight ranged 18-22 g, were randomly divided into 3 groups, 5 mice/group, which respectively were blank control group, negative control group and targeting group, the administration dose was 100 mg/kg. The negative control group was administered by tail vein injection of negative control test substance (NC, Ribobio, siM200922112438) once, the targeting group was administered by tail vein injection of the obtained G1-12 test substance of example 6 once, the blank control group was administered an equal volume of saline. All animals' livers were immediately placed in liquid nitrogen after 6 hours of administration, then were saved at −80° C., the siRNA pharmaceutical concentration of hepatic tissue was tested by qPCR method. • 1. Drawing the standard curve. […] The average Ct values of each standard points were calculated based on the obtained Ct values, the log value of standard point concentration was abscissa, the obtained average Ct value was ordinate, the standard curve was drawn, the regression equation and R^2 were calculated, R^2>0.99. • 2. […] The mice liver samples were ground to powder by liquid nitrogen grinding method, and the weight of powder was measured. […] The sample Ct values were substituted into the regression equation of the standard curve, the siRNA content of samples was calculated.

Series [2] concerns the target T1, Hepatocyte ASGPR receptor (Homo sapiens, UniProt P07306).
T1 construct: endogenous in cells
T1 sequence (P07306 1-291): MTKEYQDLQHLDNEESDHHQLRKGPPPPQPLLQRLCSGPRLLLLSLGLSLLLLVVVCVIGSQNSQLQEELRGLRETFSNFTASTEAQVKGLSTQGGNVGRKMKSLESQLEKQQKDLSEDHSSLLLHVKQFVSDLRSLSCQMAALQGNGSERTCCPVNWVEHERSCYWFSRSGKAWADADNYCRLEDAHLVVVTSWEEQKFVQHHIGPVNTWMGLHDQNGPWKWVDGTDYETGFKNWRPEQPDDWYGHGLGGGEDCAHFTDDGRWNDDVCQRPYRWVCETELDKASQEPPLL
T1 sequence (P07307 1-311 partner): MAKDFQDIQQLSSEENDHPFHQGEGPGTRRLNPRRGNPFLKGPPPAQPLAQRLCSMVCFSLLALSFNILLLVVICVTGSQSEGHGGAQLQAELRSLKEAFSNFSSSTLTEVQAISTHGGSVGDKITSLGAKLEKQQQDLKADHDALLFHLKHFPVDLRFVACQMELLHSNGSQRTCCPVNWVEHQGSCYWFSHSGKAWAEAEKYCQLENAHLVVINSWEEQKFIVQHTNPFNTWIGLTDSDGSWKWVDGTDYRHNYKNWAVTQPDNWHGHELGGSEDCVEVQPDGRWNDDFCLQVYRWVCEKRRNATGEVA
Description: Binding affinity test with hepatocyte ASGPR receptor (Cy5 flow cytometry, binding saturation curve). The protocol: Embodiment 1: Binding Affinity Test with Hepatocyte ASGPR Receptor
The compound G1, G4, G5 obtained from the examples 1, 4, 5, bound to the above mentioned siRNA respectively to form conjugates which were shown in Table 1.
G1-12, G4-12, G5-12 (1 uM) were diluted respectively in a gradient according to the following Table 2.
The cell concentration was diluted by DMEM culture medium with 2% FBS to 4*10^5 cells/mL.
200 μL cells of each sample and 200 μL siRNA were mixed uniformly, 200 μL cells of the blank control group and 200 μL culture medium were mixed uniformly, and were added in 3 wells of 96-well plate with U-shaped bottom, 100 μL each well. Samples of each concentration of all siRNA were placed in the ice box after sampling, and were placed in decolorization shaker and incubated in dark for 2 hours.
50 g of 96-well plate with U-shaped bottom was centrifuged for 2 minutes at 4° C. 80 μL supernatant was aspirated and discarded by pipette, 10 μg/mL propidium iodide was prepared by using of PBS with 2% FBS, 100 μL PI reagent was added in each well and was stained for 15 minutes. After staining, 50 g of 96-well plate with U-shaped bottom was centrifuged for 2 minutes at 4° C. After washed by PBS with 2% FBS for twice, 100 μL PBS with 2% FBS was added for resuspension, flow cytometer was used to test and count the average Cy5 fluorescence intensity of live cell population.
(In general: In flow cytometry, cells or beads pass a laser one at a time.)

In the case of “G1-12: G1 bound to 5' end of SEQ ID NO: 1, paired with 5'-Cy5 SEQ ID NO: 2; structure Z1 (sense GUAUGUUGCCCGUUUGUCC; antisense GGACAAACGGGCAACAUACCU; G1 ligand 5'; Cy5 label; modified_base join(1,5,8,12,16) OTHER; deoxyribonucleotide modification; modified_base 3 OTHER; thiophosphorylated skeleton modification and deoxyribonucleotide modification; modified_base join(4,6,7,9,10,11,13,14,15,17) OTHER; 2'-fluoro modification; modified_base join(2,18,19) OTHER; thiophosphorylated skeleton modification and 2'-fluoro modification; modified_base join(1,5,7,9,11,13,15,17) OTHER; 2'-O-methyl modification; modified_base join(3,19,20,21) OTHER; thiophosphorylated skeleton modification and 2'-O-methyl modification; modified_base join(2,4) OTHER; …) [Compound G1-12]”, the “distribution in mice liver (siRNA content of hepatic tissue)” value in series [1] is on record as “obviously increased”. In series [2] (average Cy5 fluorescence intensity of live cells minus blank, one site binding (hyperbola) fit, 0.9-100 nM, 2 hours on ice), this substance displayed a Bmax of 153854. Also, in series [2] (one site binding (hyperbola) fit of Cy5 fluorescence, 0.9-100 nM, 2 hours on ice, read-out: Kd (dissociation equilibrium constant)), the Kd (as a rule, a measure of binding affinity in units of concentration) was 1.98 nM. The “binding affinity with ASGPR receptor” value in series [2] (statement in words from Table 3) is given as “reach a higher level”.
